pIC50: −log10 of the molar value.
Assays:
[1] = molecular target: Glycogen synthase kinase-3 beta (Homo sapiens, UniProt P49841); assay: Inhibitory activity against glycogen synthase kinase-3 (GSK-3beta).
[2] = molecular target: T1, cAMP-dependent protein kinase (PKA) (Homo sapiens, UniProt P22694+P17612+P22612); assay: Inhibition of protein kinase A (PKA); assay type: protein assay
[3] = molecular target: T1, cAMP-dependent protein kinase (PKA); assay: Inhibitory activity against protein kinase A (PKA ); assay type: protein assay

Glycogen synthase kinase-3 beta, sequence (P49841 whole entry): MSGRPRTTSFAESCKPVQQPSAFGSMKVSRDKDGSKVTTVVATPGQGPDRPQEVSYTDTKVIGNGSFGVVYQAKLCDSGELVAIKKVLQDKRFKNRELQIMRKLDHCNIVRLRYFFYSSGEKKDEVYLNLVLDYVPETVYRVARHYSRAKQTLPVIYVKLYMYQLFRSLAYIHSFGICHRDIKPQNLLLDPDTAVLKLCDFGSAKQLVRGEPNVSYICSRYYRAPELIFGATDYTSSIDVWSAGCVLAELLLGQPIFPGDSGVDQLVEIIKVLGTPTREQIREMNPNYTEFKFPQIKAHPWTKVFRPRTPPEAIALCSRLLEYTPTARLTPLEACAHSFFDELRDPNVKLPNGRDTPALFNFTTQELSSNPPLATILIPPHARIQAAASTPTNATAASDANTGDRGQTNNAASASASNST

Structure (SMILES)	pIC50 [1]	IC50 [2] [µM]	IC50 [3] [µM]
O=C(CCl)c1c(Br)sc(Cl)c1Cl	5.70	> 100	
O=C(CCl)c1cc(Br)c(Br)s1	6.00		> 100
Cc1sc(C(=O)CCl)cc1C(=O)CCl	5.30		
O=C(CBr)c1ccc(-c2ccccc2)cc1	5.60		> 100
O=C(CCl)c1cccs1	4.30		
O=C(CCl)c1scc(Br)c1Br	6.30		> 100
O=C(CBr)c1ccccc1	5.30		> 100
O=C(CCl)c1ccc(Cl)cc1	5.60		> 100
Cc1csc(C(=O)CCl)c1	< 4.00		
O=C(CCl)c1csc(C(=O)CCl)c1	5.82		> 100
Cc1c(C(=O)CCl)csc1C(=O)CCl	5.30		> 100
CC(=O)c1ccc(C(=O)CCl)s1	4.30		
O=C(CCl)c1cscc1Cl	4.60		> 100
O=C(CCl)c1c(Br)sc(Br)c1Br	6.00		
O=C(CCl)c1cc(Cl)c(Cl)s1	5.60		
Cc1ccsc1C(=O)CCl	4.12		
O=C(CCl)c1cc(Br)cs1	5.52		
O=C(CBr)c1ccc(Br)cc1	6.30		> 100
O=C(CCl)c1ccc(Br)s1	5.00		> 100
Cc1cc(C(=O)CCl)c(C)s1	< 4.00		
O=C(CCl)c1ccc(Cl)s1	5.00		> 100
CC(=O)c1csc(C(=O)CCl)c1	5.10		> 100
Cc1ccc(C(=O)CCl)s1	< 4.00		
O=C(CCl)c1cc(Cl)sc1Cl	5.30		> 100
O=C(CCl)c1ccccc1 [PHENACYL CHLORIDE]	4.30		

From ChEMBL document CHEMBL1145133, “Thienyl and phenyl alpha-halomethyl ketones: new inhibitors of glycogen synthase kinase (GSK-3beta) from a library of compound searching” (J Med Chem, 2003)
